Data taken from patent publication US20090215895A1, “Therapeutic and carrier molecules” (PEPLIN BIOLIPIDS PTY LTD, priority 2004, published 2009).
Entries after “also recorded” stand apart in the source; their conditions may differ.

Assays:
[1] = Formalin-induced pain test (hind paw licking time); assay type: in vivo
Method: Investigations of the effects of PT2 on pain induced by phenylquinolic acid (PQ writhing) and formalin have been made. In both the PQ writhing test (FIG. 3) and the formalin algesia test (FIG. 4), PT2 administered by intraperitoneal inoculation reduced pain and compared favourably with pain reduction by aspirin (oral, 100 mg/kg). In these tests, the EPUFA was administered 30 min before the pain stimulus and effects recorded over the following 20 min.
Investigations of PT2 in the formalin-induced analgesia model looking specifically at the biphasic response have also been undertaken and are shown in Table 1. It is well documented that in this model, aspirin suppresses only pain related to the inflammatory process (15-20 mins post-administration of formalin), while morphine suppresses pain in both phases of the response (0-5 min and 15-20 min).
Compounds were administered intraperationedly (ip) 30 min prior to the administration of formalin (0.02 ml, 1% solution) via subplantar injection into the right hind paw. Reduction of the induced hind paw licking time recorded during the following 0-5 min period (Phase I response) or 15-20 min period (Phase II response) was determined. The data in Table 1 are the mean responses of 5 animals in each group.

HUVEC = test: Agonist-enhanced neutrophil adherence to HUVEC; assay type: cell-based, human; conditions: 20 μmol/l, 1 hr pre-treatment, TNF 4 hr
Method: FIG. 11 is a representation showing effect of β-oxa; β-thia and natural PUFA on TNF-enhanced neutrophil adherence to HUVEC. HUVEC were pre-treated with the fatty acids (20 μmol/l) for 60 min at 37° C. before being stimulated with TNF (125 U/200 μl medium) for 4 hr at 37° C. The cells were then co-incubated with neutrophils (5×10^5 cells/well) at 37° C. for 30 min and the degree of neutrophil adherence quantitated. The results are expressed as % of control and represent the mean±SEM of three separate experiments each performed in triplicate. * p<0.05, ***p<0.001, for significant differences between pre-treatment with fatty acid and control (one-way analysis of variance followed by the Dunnett test for multiple comparisons).
Adhesion of neutrophils, prepared by the rapid-single-step method (Ferrante et al, J. Immun. Methods 36:109-117, 1980), to HUVEC isolated from umbilical cords was carried out essentially as described (Huang et al, 1997 supra).
The magnitude of the suppressive effect of -MP3 was dependent on-pre-treatment time and concentration with significant effects observed with a pre-treatment time of 1 hr and a concentration of ≧5 μmol/l.

PKCβI [2] = target: T1, PKCβI (Homo sapiens, UniProt P05771); test: PMA-stimulated PKC translocation to the particulate fraction in HUVEC and other cell-types; assay type: cell-based
T1 construct: endogenous in cells; host or cells: HUVEC (and unnamed other cell-types)
T1 sequence (P05771 whole entry): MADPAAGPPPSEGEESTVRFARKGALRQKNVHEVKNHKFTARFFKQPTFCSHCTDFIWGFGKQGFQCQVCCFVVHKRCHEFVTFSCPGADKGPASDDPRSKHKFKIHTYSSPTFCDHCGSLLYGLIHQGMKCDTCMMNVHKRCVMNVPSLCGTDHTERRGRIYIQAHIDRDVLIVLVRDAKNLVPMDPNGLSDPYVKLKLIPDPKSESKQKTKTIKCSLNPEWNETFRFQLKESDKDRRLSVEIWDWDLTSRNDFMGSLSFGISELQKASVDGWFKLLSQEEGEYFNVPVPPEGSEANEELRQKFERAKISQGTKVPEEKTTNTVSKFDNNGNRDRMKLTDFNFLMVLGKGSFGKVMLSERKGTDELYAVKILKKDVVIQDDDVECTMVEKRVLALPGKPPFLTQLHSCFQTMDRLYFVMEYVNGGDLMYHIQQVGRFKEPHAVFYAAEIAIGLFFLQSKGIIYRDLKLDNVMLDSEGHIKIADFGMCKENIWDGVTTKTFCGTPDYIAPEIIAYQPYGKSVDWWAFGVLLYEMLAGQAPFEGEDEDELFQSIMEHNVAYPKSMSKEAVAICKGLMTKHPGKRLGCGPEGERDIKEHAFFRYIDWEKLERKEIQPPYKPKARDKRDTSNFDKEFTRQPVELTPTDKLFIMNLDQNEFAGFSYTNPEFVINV

PKCβII = target: T2, PKCβII (Homo sapiens, UniProt P05771); test: as above; assay type: cell-based
T2 construct: endogenous in cells; host or cells: HUVEC (and unnamed other cell-types)
T2 sequence (P05771 1-673 isoform P05771-2): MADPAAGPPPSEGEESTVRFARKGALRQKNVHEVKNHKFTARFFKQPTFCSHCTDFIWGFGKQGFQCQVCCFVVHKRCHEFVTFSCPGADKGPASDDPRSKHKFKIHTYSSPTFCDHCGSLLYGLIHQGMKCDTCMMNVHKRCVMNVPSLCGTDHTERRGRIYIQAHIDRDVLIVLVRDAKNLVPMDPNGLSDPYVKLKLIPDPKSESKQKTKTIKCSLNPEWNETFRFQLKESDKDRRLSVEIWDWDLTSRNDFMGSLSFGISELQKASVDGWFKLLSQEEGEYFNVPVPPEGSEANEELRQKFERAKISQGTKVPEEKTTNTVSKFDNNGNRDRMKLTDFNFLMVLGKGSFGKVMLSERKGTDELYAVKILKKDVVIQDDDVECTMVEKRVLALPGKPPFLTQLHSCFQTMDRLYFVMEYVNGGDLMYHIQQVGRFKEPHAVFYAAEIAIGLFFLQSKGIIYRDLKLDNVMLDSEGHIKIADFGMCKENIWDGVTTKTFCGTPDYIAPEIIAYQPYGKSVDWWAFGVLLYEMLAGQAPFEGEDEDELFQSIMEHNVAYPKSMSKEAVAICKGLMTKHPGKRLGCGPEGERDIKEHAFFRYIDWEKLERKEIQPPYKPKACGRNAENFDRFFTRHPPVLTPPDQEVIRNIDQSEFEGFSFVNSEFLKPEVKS
Method: (§1) MP5 had minimal effects (<15%) on PKCε translocation and no effects on the translocation of the other PKC isozymes in Jurkat cells.
Mesangial cells express PKCα, βI, ε, δ and ζ (Koya et al, 1997 supra, Kikkawa et al, 1994 supra), and βII at lower levels (Koya et al, 1997 supra). To examine the effect of MP5 on the ability of other PKC isozymes in mesangial cells to translocate to the particulate fraction, the cells were pre-treated with MP5 before being stimulated with PMA (1-100 nM). This agent stimulated the translocation of all the classical and novel isozymes. […] The studies were extended to other isozymes. For PKCγ (expressed mainly by neuronal cells), the effect of MP5 are tested using PMA-stimulated PC12 rat pheochromocytoma cells. To assess the effect of MP5 on the activation of atypical PKC isozymes such as PKCζ NIH3T3 cells were pre-treated with MP5 before being stimulated with tumour necrosis factor ? (1000 U/ml) which stimulates PKCζ activity in these cells (Lallena et al, 1999 supra). The isozyme were immunoprecipitated (antibody from Santa Cruz) and kinase activity was determined using a PKCε pseudosubstrate peptide or myelin basic protein as a substrate (Suzuma et al, 2002 supra).

PKCε = target: T3, PKCε (Homo sapiens, UniProt Q02156); test: PKC translocation in Jurkat cells; assay type: cell-based
T3 construct: endogenous in cells; host or cells: Jurkat
T3 sequence (Q02156 whole entry): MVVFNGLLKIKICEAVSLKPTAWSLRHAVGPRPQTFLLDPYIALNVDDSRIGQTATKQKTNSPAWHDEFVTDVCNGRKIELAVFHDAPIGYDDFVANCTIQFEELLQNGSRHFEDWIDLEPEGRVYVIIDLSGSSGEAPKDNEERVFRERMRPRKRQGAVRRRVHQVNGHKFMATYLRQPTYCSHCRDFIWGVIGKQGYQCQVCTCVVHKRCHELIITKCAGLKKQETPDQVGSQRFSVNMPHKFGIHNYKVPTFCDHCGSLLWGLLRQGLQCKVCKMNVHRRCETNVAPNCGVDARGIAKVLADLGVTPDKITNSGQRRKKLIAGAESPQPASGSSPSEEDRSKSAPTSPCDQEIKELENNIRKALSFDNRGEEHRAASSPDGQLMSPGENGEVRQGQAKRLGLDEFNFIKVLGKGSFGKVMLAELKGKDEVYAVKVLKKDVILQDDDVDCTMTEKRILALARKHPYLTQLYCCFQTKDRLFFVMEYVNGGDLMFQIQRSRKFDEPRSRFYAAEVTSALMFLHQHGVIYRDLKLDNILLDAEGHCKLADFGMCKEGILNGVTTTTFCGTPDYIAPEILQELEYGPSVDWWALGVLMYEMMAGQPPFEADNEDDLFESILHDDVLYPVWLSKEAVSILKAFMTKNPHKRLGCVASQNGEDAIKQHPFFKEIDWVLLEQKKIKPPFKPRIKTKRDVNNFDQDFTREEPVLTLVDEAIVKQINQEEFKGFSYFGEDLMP
Text: as §1

other PKC isozymes = test: PKC translocation in Jurkat cells; assay type: cell-based
Text: as §1

PKCβI [3] = test: PKCβ1 translocation in glucose-stimulated mesangial cells (Western blot); assay type: cell-based; conditions: 1 hr pre-treatment, 25 mM glucose 5 days
Method: (§2) FIG. 9 is a diagrammatic representation showing the suppression of PKCβ1 translocation in glucose-stimulated mesangial cells (a) and in the glomeruli of a diabetic rat (b). Mesangial cells were pre-treated with MP5 or vehicle (ethanol) for 1 hr before being incubated with 25 mM glucose for 5 days. Male rats were rendered diabetic with streptozotocin and MP5 or vehicle (ethanol) was administered for 7 days after confirmation of diabetes. The cells and glomeruli were sonicated and particulate fraction-associated PKCβ1 was determined by Western blot analysis. High glucose and diabetes increased PKCβ1 in the particulate fraction.
Mesangial cells are prepared as previously described (Couper et al, 1994 supra).
Four groups of cells were set up: 5.5 mM glucose+ethanol (0.1% w/v or v/v), 5.5 mM glucose+MP5 (20 μM which is effective in the studies), 25 mM glucose+ethanol and 25 mM glucose+MP5. […] Cells were pre-incubated (30 min-24 h) with MP5 before being challenged with glucose for 4 days. […] Cells are then be washed, sonicated and the amount of each PKC isozyme in the particulate fraction determined by Western blot analysis. The soluble fractions were kept for estimation of soluble PKC (non-particulate fraction-associated). […] The cells remained viable throughout the period of study as judged by the trypan blue exclusion test. […]

PKCβI [4] = target: T4, PKCβI (Rattus norvegicus, UniProt P68403); test: PKCβ1 translocation in the glomeruli of streptozotocin-diabetic rats; assay type: in vivo; conditions: administered for 7 days after confirmation of diabetes
T4 construct: from tissue; host or cells: glomeruli of streptozotocin-diabetic male rats
T4 sequence (P68403 whole entry): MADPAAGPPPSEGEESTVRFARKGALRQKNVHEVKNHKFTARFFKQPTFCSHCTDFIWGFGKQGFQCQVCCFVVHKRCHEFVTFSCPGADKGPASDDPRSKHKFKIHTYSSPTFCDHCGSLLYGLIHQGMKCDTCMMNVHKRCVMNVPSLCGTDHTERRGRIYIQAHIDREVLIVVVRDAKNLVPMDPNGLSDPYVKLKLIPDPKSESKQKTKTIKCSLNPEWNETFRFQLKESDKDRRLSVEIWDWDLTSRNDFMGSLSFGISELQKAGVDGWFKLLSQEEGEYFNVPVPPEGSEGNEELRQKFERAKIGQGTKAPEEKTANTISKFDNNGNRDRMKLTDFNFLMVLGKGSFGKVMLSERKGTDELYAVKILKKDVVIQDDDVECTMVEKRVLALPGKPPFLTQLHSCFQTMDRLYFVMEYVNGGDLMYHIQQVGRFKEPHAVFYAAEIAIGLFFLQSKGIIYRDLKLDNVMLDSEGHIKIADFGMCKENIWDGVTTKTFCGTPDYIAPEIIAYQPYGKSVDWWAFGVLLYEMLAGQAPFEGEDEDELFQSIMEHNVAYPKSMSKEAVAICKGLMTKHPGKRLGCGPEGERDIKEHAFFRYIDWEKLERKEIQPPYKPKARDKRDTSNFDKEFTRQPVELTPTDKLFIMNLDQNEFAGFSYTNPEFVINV
Method: as §2

[5] = Long term in vivo tolerability of MP5; set-up: species or system rats; conditions: up to 100 mg/kg
Method: as §1
The ability of MP5 to inhibit renal TGFβ production and albuminuria in streptozotocin-induced diabetic Sprague-Dawley rats were investigated. MP5 is non toxic to rats given at up to 100 mg/kg chronically as determined by liver and kidney biochemical and electrolyte markers. […] Animals (130-150 g) were placed randomly in one of five groups: control, MP5-treated, diabetic, diabetic+MP5 and diabetic+MP1. Power analysis ([…], β=0.1) (expecting at least a 50% reduction and an SD of 30% of mean) indicate that 7-8 animals/group were needed. The rats were rendered diabetic using streptozotocin (65 mg/kg. I.P) and blood glucose levels were measured 48 hr later to confirm the onset of diabetes (glucose>15 mM). […] Blood glucose was measured every week. […] At the end of the MP5 treatment period, rats were sacrificed and the level of TGFβ mRNA (Kikkawa et al 1994 supra) in the glomeruli were determined by slot blot analysis (Ferrante et al, 1997 supra) and normalized by comparison with the level of GAPDH (glyceraldehyde 3-phosphate dehydrogenase) mRNA in the same sample (Ferrante et al, 1997 supra). The amount of albumin in the urine were measured by using a commercial kit (EXOCELL Inc. Philadelphia, Pa.). […]

[6] = Tissue distribution after oral administration; assay type: in vivo
[7] = 100 mg/kg ip, 30 min prior to formalin, mean of 5 animals

PMA-stimulated translocation of PKCβI to the particulate fraction (PKCβI [2]; HUVEC and other cell-types): inhibited PMA-stimulated translocation
PMA-stimulated translocation of PKCβII to the particulate fraction (PKCβII): inhibited PMA-stimulated translocation
Effect on PKCε translocation (PKCε): < 15%
SMILES: CC/C=C\C/C=C\C/C=C\CCCCCCCCOCC(=O)O [MP5, β-oxa-21:3n-3]
% inhibition of pain response, Phase I (0-5 mins) [1, 7]: 34%
% inhibition of pain response, Phase II (15-20 mins) [1, 7]: 37%
Pain reduction in formalin test ([1]; intraperitoneal, 30 min before pain stimulus): much less effective in inhibiting pain
Inhibition of TNF-α-enhanced neutrophil adhesion to HUVEC (HUVEC): inhibited their ability to be stimulated
Selectivity between PKCβI and PKCβII (PKCβI [2]; HUVEC, depending on the concentrations used): able to distinguish between PKCβI and PKCβII
Effect on translocation of the other PKC isozymes (other PKC isozymes): no effects
Translocation of PKCβI to a particulate fraction, glucose-stimulated mesangial cells (PKCβI [3]): prevent the translocation of PKCβI; also recorded: inhibited this effect
Translocation of PKCβI to a particulate fraction, glomeruli of diabetic rats (PKCβI [4]): prevent the translocation of PKCβI; also recorded: inhibited this effect
Liver and kidney function and electrolyte levels ([5]; chronic): no adverse effects on liver and kidney function and electrolyte levels; also recorded: non toxic
Well-being of the animals (coat appearance, activity/mobility) ([5]; up to three months): no visible adverse effects
Presence in blood, organs and tissues after oral administration [6]: present in the blood and various organs; also recorded: taken up by tissues, including kidneys, and incorporated into phospholipids
